Blank lines part the entries; values can stand above or below the molecule they belong to.
Assay: Solubility Comparing Test (saturation concentration of dye in alcohol type solvents)
Type: physicochemical
Conditions: for Solubility, Mixed solvent: Phenylene glycol:Benzyl alcohol:oleic acid = 4:1:1; for Solubility, Mixed solvent / Solubility, Ethylene glycol: dye added after heating the solvent to 70-80 C; for Solubility, Ethanol / Solubility, n-Propanol: saturation concentration by spotting on filter paper
Method: Solubility of disazo salt-forming dyes (dye 1-5) obtained in Examples 1-5 and dyes a-c into alcohol type organic […] was tested. While stirring each dye with a magnet stirrer, the dye was first added to 100 parts of solvent and it was spotted on the filter paper (Toyo filter paper No. 2) to investigate the saturation concentration. When ethylene glycol or mixed solvent was used for the solvent, dye was added after heating the solvent to 70-80 C.
Phenylene glycol:Benzyl alcohol:oleic acid = 4:1:1
2) Numbers in the Table indicate the solubility (wt %) into the respectiv

Solubility, Mixed solvent (listed as 2): 40 wt % | Solubility, Ethanol (listed as 2): 25 wt % | Solubility, Ethylene glycol: 30 wt % | Solubility, n-Propanol (listed as 2): 20 wt %
SMILES: CCC(C)c1ccc(N=Nc2c(S(=O)(=O)O)cc3cc(Nc4ccc5c(O)c(N=Nc6ccc(C(C)CC)cc6)c(S(=O)(=O)O)cc5c4)ccc3c2O)cc1 (centres unmarked) [Dye 2]

Solubility, Mixed solvent (listed as 1): 30 wt % | Solubility, Ethanol (listed as 1): 20 wt % | Solubility, Ethylene glycol: 30 wt % | Solubility, n-Propanol (listed as 1): 15 wt %
SMILES: CCC(C)c1ccc(N=Nc2c(S(=O)(=O)O)cc3cc(Nc4ccc5c(O)c(N=Nc6ccc(C(C)CC)cc6)c(S(=O)(=O)O)cc5c4)ccc3c2O)cc1 (centres unmarked) [Dye 1]

Solubility, Mixed solvent: 30 wt % | Solubility, Ethanol (listed as a): 10 wt % | Solubility, Ethylene glycol: 30 wt % | Solubility, n-Propanol: 5 wt %
SMILES: O=S(=O)(O)c1cc2cc(Nc3ccc4c(O)c(N=Nc5ccccc5)c(S(=O)(=O)O)cc4c3)ccc2c(O)c1N=Nc1ccccc1 [Dye a]

The next lines start with the molecule.

SMILES: CCC(C)c1ccc(N=Nc2c(S(=O)(=O)O)cc3cc(Nc4ccc5c(O)c(N=Nc6ccc(C(C)CC)cc6)c(S(=O)(=O)O)cc5c4)ccc3c2O)cc1 (centres unmarked) [Dye 3]
Solubility, Mixed solvent (listed as 3): 30 wt % | Solubility, Ethanol (listed as 3): 20 wt % | Solubility, n-Propanol (listed as 3): 10 wt %

SMILES: COc1cc(N=Nc2ccccc2)c(C)cc1N=Nc1c(S(=O)(=O)O)cc2cc(S(=O)(=O)O)cc(N)c2c1O [Dye c, reference compound]
Solubility, Mixed solvent: 40 wt % | Solubility, Ethanol: 10 wt % | Solubility, Ethylene glycol: 30 wt % | Solubility, n-Propanol: 10 wt %

SMILES: O=S(=O)(O)c1cc2cc(Nc3ccc4c(O)c(N=Nc5ccccc5)c(S(=O)(=O)O)cc4c3)ccc2c(O)c1N=Nc1ccccc1 [Dye b, reference compound]
Solubility, Ethanol (listed as b): 5 wt %

From patent US5366543A, “Alcohol-soluble dye and ink composition containing the same” (Orient Chemical Industries, Ltd., priority 1992, dated 1994)
